{"source": "patent US20050261194A1", "about": "“Use of thymulin-like peptides for making pain-relieving medicines” (priority 2001, published 2005)", "type_in_all_cases": "in vivo, rat", "key": {"[1]": {"test_system": "rats", "assay": "Hyperalgesia induced by intraplantar injection of capsaicin; PP, HP, PI tests", "procedure": "Injection of capsaicin (10 μg in 50 μl of a 10% solution of Tween 20 in olive oil) produced hyperalgesia, whose peak was at three to six hours after injection and which disappeared at the end of 24 hours. Mechanical hyperalgesia was evaluated using the paw pressure test (PP), which consists in applying a constant pressure of 0.2 kg/cm on the dorsal part of the hind paw. The time lapsed between the application of the pressure and the nociceptive reflex of retraction of the paw was considered as the latency time (or threshold) of mechanical nociceptive. Thermal hyperalgesia was evaluated using the hot-plate (HP) test and the paw immersion (PI) test.\nThe HP and PI tests were done as in Example 1, the hot-plate having a temperature 52.5±0.3° C. and the hot water container at 48±0.3° C.\nThe PP and PI tests were done one after the other on the two hind paws observing an interval of five minutes between two consecutive tests.\nThe rats were sent to the laboratory one week prior to injection so that they would become accustomed to the environment and the tests were done on the rats over two or three days in order to obtain the baseline value for each test before any treatment (detailed description in Kanaan S. A. et al., 1996, Endotoxin-induced local inflammation and hyperalgesia in rats and mice: a new model for inflammatory pain, Pain, 66:373-379).\nIn the course of the experiments involving the injection […]. of capsaicin, the mean of the measurements done using each pain test (PP, HP or PI) was calculated for each group of rats prior to the injection of the capsaicin (baseline condition) and at different time intervals after injection (3, 6, 9 and 24 hours). TAP was injected (i.p.) thirty minutes before the capsaicin and the latency times of the different pain tests were measured at the same intervals of time after injection of the capsaicin."}, "[2]": {"test_system": "NGF", "assay": "NGF in hind paw skin after intraplantar ET (immunological kit)", "procedure": "These experiments required tissue sampling. The animals were sacrificed by anesthesia (sodium penthiobarbital, 50 mg/kg) and the skin of the hind paws is sampled either at 1 h (for the determination of the TNFα) or at 4 h (for the determination of IL-1β, IL-6 and NGF) after the endotoxin injection.\nThese tissue samples are weighed and then quick frozen and stored at −70° C. with a view of proceeding with the evaluation of IL-1β, TNFα, IL-6 and NGF.\nIn another series of experiments, the tissues are taken as described above using different groups of rats; the one group being pretreated with TAP 30 minutes before injection of ET and the other group having been injected with TAP only.\nThe tissues are homogenized in a phosphate buffer solution (PBS, pH=7.4), containing 0.4 M of NaCl, 0.05% of Tween-20®, 0.5% bovine serum albumin (BSA), 0.1 mM of phenylmethylsulfonyl fluoride, 0.1 mM of benzethonium chloride, 10 mM of EDTA and 20 KI/mL of aprotinin.\nThe mixture is then centrifuged at 1,200 g for 60 minutes at 4° C. The cytokines and the NFG contained in the supernatant were measured using ELIZA assays.\nThe NGF is measure with the aid of an immunological kit (Promega) by following the recommended instructions of the manufacturer. […]"}, "[3]": {"test_system": "rats", "assay": "Daily treatment with TAP in neuropathic rats (model not stated, FIG. 11)", "conditions": "TAP 1 μg in 100 μL daily over 5 consecutive days"}, "[4]": {"test_system": "rats", "assay": "Systemic inflammatory hyperalgesia induced by intraperitoneal ET; PP and TF tests", "conditions": "TAP 25 μg i.p. thirty minutes before ET 50 μg i.p.", "procedure": "In the second model, the rats receive an intraperitoneal injection of endotoxin ([…] in 100 μl of physiological saline solution).\nProtocol 2(a): One group of rats received one intraperitoneal injection of ET (50 μg), while the other group was pretreated with the protein analogue of thymuline (TAP) (25 μg, intraperitoneal injection), 30 minutes before the injection of ET.\nThe TF and PP tests were then done at 1 hour, 3 hours and 6 hours after the injection of ET."}, "[5]": {"test_system": "rats", "assay": "Visceral pain induced by intraperitoneal injection of capsaicin; 4-level behavioral scale", "procedure": "This test consisted of injecting (i.p.) 20 μg of capsaicin in 100 μl of a 10% solution Tween 20 in olive oil in some rats and observing the behavior induced by these injections. A 4-level behavioral scale was designed according to the method described by Giesler G J et al., (1976, Inhibition of visceral pain by electrical stimulation of the periaqueductal gray matter, Pain 2:43-48).\nThe levels were defined as follows: 0=normal behavior; 1=slight contraction of the abdominal muscles; 2=contraction of one single side and luxation of the haunch dropping; 3=significant contraction of the abdominal muscles and extension of the two rear paws.\nFor the evaluation of the animals' behavior, each rat was placed in transparent cage placed over a mirror inclined at 45° for optimum observation.\n[…] None of the two observers knew the injection administered nor the expected effects.\nFor the injection i.p. of the capsaicin, the total time corresponding to each behavioral level was measured for the animals having received the capsaicin alone or the capsaicin after the TAP. The variation of the neuropathic manifestations or of the pain tests after the treatments were evaluated by ANOVA then by Bonfrerroni tests done post hoc. The variations of the pain scores with or without treatment were evaluated by the Student bilateral test by assuming a significance level of 5% (p<0.05)."}}}
{"substance": "Glu-Ala-lys-Ser-Gln-Gly-Gly-Ser-Asp (SQGGSD; N-terminal Glu-Ala-Lys; printed: Ser-Gln-Gly-Gly-Ser-Asp) [TAP]", "values": [{"measurement": "modification of latency times in the pain tests, TAP alone", "setting": "[1]; TAP 25 μg, no capsaicin, FIG. 8 controls", "result": "did not result in significant modification"}, {"measurement": "effect on capsaicin-induced hyperalgesia at the more elevated dose", "setting": "[1]; TAP highest dose i.p. before capsaicin 10 μg i.pl.", "result": "complete prevention"}, {"measurement": "effect on hyperalgesia induced by intraplantar capsaicin", "setting": "[1]; TAP i.p. 1.5 or 25 μg/rat thirty minutes before capsaicin 10 μg, FIG. 8", "result": "dose-dependent attenuation"}, {"measurement": "change of NGF concentration, TAP alone", "setting": "[2]; TAP 25 μg in control animals, no ET", "result": "did not induce significant change"}, {"measurement": "NGF concentration", "setting": "[2]; TAP pretreatment before intraplantar ET, ET alone 23.0±1.73, saline 9.11±1.6, p<0.001", "result": "16.73±2.70", "unit": "ng/paw"}, {"measurement": "effect of daily treatment on allodynia", "setting": "[3]; FIG. 11", "result": "progressive reduction of the manifestations of the allodynia"}, {"measurement": "effect of daily treatment on the effects of each injection", "setting": "[3]; FIG. 11", "result": "potentiation of the effects of each injection"}, {"measurement": "effect of daily treatment on cold allodynia", "setting": "[3]; compared with single injection", "result": "increased inhibition of the cold allodynia"}, {"measurement": "effect on mechanical hyperalgesia (PP test)", "setting": "[4]; FIG. 4A", "result": "abolished"}, {"measurement": "effect on thermal hyperalgesia (TF test)", "setting": "[4]; FIG. 4B", "result": "abolished"}, {"measurement": "effect on nociception scores induced by capsaicin", "setting": "[5]; TAP 50 μg before capsaicin 20 μg i.p., FIG. 9", "result": "significant shift to the left"}, {"measurement": "time at behavioral level 0", "setting": "[5]; TAP 50 μg in 200 μl/rat before capsaicin 20 μg i.p., capsaicin alone 0.2±0.3, 36 minutes observation", "result": "0.82 ± 0.18", "unit": "min"}, {"measurement": "time at behavioral level 1", "setting": "[5]; TAP 50 μg in 200 μl/rat before capsaicin 20 μg i.p., capsaicin alone 2.51±0.45, 36 minutes observation", "result": "12.89 ± 2.5", "unit": "min"}, {"measurement": "time at behavioral level 3", "setting": "[5]; TAP 50 μg in 200 μl/rat before capsaicin 20 μg i.p., capsaicin alone 11.84±0.43, 36 minutes observation", "result": "6.67 ± 0.09", "unit": "min"}, {"measurement": "time at behavioral level 2", "setting": "[5]; TAP 50 μg in 200 μl/rat before capsaicin 20 μg i.p., capsaicin alone 21.5±0.8, 36 minutes observation", "result": "15.62 ± 0.9", "unit": "min"}]}
